This note sets out measurements from BindingDB's records for doi:10.1016/s0960-894x(01)00591-1 (University of Maryland, 2001).

The structures appear in SMILES notation.

For this assay, the target named is Guanine deaminase (Oryctolagus cuniculus). As to the kind of experiment: Binding affinity against Guanine deaminase (guanase) from rabbit liver was determined.

A word on the Ki: it is the dissociation constant of the complex between target and ligand, obtained from inhibition or displacement. `N=c1nc(N)nc(N)c2c1N(COCCO)CN2` showed a Ki of 29.7 µM.
